Experiments:
[1] = system: spontaneously hypertensive rats (SHR); experiment: Spontaneously hypertensive rats, oral gavage, systolic blood pressure by tail-cuff; format: in vivo, rat; conditions: for change in systolic blood pressure (ΔSBP): 24 hour after oral gavage, 30 mg/kg BW; for hypotensive activities, duration of effect: over a 24 hr period, oral 30 mg/kg BW, FIG. 16
Procedure: Animal experiments were carried out following the Canadian Council on Animal Care ethics guidelines with a protocol approved by the University of Manitoba Animal Protocol and Management Review Committee. The spontaneously hypertensive rats (SHR) were kept in the Animal Housing Facility at the Richardson Centre for Functional Foods and Nutraceuticals, University of Manitoba under a 12-hr day and night cycle at 21° C. and were fed a regular chow diet and tap water, ad libitum. The SHR were divided into […] that received the following treatments (dissolved in phosphate buffered saline, pH 7.2): ADMFPF (SEQ ID NO. 23) peptide (n=6), WMP (SEQ ID NO. 15) peptide (n=6), captopril (positive control, n=6), saline (negative control, n=6). The peptides (each at 30 mg/kg body weight, BW) and captopril (3 mg/kg BW) were administered to the SHR by oral gavage followed by measurement of systolic blood pressure (SBP) at 2, 4, 6, 8 and 24 hr by the tail-cuff method in slightly anesthesized rats. Prior to sample administration, the baseline (time zero) SBP was determined. In order to mitigate the blood pressure (BP) depression effect of isofluorane, the gas flow was optimized such that rats became conscious usually within 3-4 min after removal from the chamber, which provided enough time to perform the blood pressure measurement. Rats were first anesthesized in a chamber (maintained at about 40° C.) with 4% isofluorane for 4 min. They were then removed from the isofluorane chamber and tail-cuff measurement of blood pressure performed in the […]. The change in SBP (ΔSBP, mmHg) was determined by subtracting the data for the different time points from their respective baseline data.

human recombinant renin = molecular target: T1, human recombinant renin (Homo sapiens, UniProt P00797); experiment: Renin inhibitory activity assay (fluorometric); format: biochemical; conditions: Table 1; peptide concentration not given
T1 construct: purchased Cayman Chemical; host or cells: HEK cells
T1 sequence (P00797 67-406): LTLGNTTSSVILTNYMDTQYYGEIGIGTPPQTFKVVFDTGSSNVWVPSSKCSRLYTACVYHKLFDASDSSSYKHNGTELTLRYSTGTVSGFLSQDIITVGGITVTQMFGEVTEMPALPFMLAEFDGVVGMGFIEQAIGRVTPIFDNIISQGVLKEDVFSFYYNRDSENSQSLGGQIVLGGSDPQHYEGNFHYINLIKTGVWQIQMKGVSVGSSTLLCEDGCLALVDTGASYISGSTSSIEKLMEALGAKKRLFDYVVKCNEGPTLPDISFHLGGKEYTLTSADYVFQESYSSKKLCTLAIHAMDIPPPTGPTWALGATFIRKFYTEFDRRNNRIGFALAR
Procedure: Renin inhibitory activity assays were carried out on a Shimadzu RF 1501 spectrofluorometer equipped with thermostated cell holder according to the method of Wang, Chung, Holzman, & Krafft (1993) with some modifications (FIG. 5 and Table 1). The following instrumental parameters were used: excitation wavelength, 340 nm; emission wavelength, 490 nm; excitation and emission bandwidth, 10 nm. A standard 2 mL, 1 cm pathlength cuvettes containing 1 mL of buffer (or 1 mL varied peptide concentrations) and 1 mL of 2.5 μM substrate, was equilibrated at 37° C. for 5 min to gain thermal equilibrium. A 15 μL of renin (0.4 μg renin) was then added to the cuvette to initiate the reaction. The time dependent increase of fluorescence intensity was monitored for 5 min. The initial reaction velocity, expressed in arbitrary fluorescence units per minute (FU/min), was calculated by least-squares analysis of the initial phase of the reaction. The renin inhibiting activity of the peptide fractions and the individual peptides within are described in Table 1.
Renin inhibiting assay was modified from the fluorometric assay developed for renin activity measurement (FIG. 5). […] The Michaelis-Menten constant (Km) in our study is 3.8 μM for human recombinant renin in the absence of peptide fractions. This value is close to the reported KM of 3.6 μM using the same source of renin and substrate under similar assay conditions (Holzman et al 1991). However, Km of human recombinant renin was also reported to be 1.62 μM (Toshihisa et al., 1992), or 1.25 μM in purified human renal renin acting on pure human plasma angiotensingen at pH 5.7 (Cumin et al., 1987), 1.54 μM at pH 6.5 (Slater and Strout 1981). The Km value for the reaction between renin and substrate also depends on pH, ionic strength, the medium and the assay procedure used (Poulsen et al., 1976). The Michaelis-Menten constants were increased to 6.3 and 6.1 μM, respectively in the presence of peptide fractions of T4 and T5, indicating decreased binding ability between renin and substrate because of the presence of competitive peptide inhibitors.

RENIN INHIBITION % (human recombinant renin) [%]	Molecule	further results
–	C[C@H](CS)C(=O)N1CCC[C@H]1C(=O)O [Captopril, captopril, reference compound]	hypotensive effect compared to ADMFPF ([1]; after 24 hour, captopril 3 mg/kg BW oral): less effective
–	ADMFPF (listed as Pisum sativum) [SEQ ID NO. 23]	change in systolic blood pressure (ΔSBP) [1]: −25 mmHg; hypotensive activities, duration of effect [1]: comparable to captopril
4.85	SEQ ID NO. 13: peptide identified within the bioactive fractions of yellow pea protein hydrolysate (WLP; listed as Pisum sativum)	–
15.39	SEQ ID NO. 14: peptide identified within the bioactive fractions of yellow pea protein hydrolysate (RAAP; listed as Pisum sativum)	–
57.53	SEQ ID NO. 17: peptide identified within the bioactive fractions of yellow pea protein hydrolysate (RSPD; listed as Pisum sativum)	–
9.30	SEQ ID NO. 18: peptide identified within the bioactive fractions of yellow pea protein hydrolysate (WPHT; listed as Pisum sativum)	–
22.19	SEQ ID NO. 19: peptide identified within the bioactive fractions of yellow pea protein hydrolysate (YPRE; listed as Pisum sativum)	–
43.37	WMP (listed as Pisum sativum) [SEQ ID NO. 15]	change in systolic blood pressure (ΔSBP) [1]: −14 mmHg; hypotensive activities, duration of effect [1]: comparable to captopril; hypotensive effects compared with ADMFPF ([1]; up to 8 hours after oral administration): initial higher hypotensive effects

— US8815806B2, “Yellow pea seed protein-derived peptides” (University of Manitoba, priority 2009, dated 2014)
